From PMC3516848 (Journal of medicinal chemistry, 2011) come the findings set out here.

Each structure is given as a SMILES string.

This assay addresses T1, recombinant PfA-M1 (Plasmodium falciparum, UniProt O96935).
T1 sequence (O96935 1-1085): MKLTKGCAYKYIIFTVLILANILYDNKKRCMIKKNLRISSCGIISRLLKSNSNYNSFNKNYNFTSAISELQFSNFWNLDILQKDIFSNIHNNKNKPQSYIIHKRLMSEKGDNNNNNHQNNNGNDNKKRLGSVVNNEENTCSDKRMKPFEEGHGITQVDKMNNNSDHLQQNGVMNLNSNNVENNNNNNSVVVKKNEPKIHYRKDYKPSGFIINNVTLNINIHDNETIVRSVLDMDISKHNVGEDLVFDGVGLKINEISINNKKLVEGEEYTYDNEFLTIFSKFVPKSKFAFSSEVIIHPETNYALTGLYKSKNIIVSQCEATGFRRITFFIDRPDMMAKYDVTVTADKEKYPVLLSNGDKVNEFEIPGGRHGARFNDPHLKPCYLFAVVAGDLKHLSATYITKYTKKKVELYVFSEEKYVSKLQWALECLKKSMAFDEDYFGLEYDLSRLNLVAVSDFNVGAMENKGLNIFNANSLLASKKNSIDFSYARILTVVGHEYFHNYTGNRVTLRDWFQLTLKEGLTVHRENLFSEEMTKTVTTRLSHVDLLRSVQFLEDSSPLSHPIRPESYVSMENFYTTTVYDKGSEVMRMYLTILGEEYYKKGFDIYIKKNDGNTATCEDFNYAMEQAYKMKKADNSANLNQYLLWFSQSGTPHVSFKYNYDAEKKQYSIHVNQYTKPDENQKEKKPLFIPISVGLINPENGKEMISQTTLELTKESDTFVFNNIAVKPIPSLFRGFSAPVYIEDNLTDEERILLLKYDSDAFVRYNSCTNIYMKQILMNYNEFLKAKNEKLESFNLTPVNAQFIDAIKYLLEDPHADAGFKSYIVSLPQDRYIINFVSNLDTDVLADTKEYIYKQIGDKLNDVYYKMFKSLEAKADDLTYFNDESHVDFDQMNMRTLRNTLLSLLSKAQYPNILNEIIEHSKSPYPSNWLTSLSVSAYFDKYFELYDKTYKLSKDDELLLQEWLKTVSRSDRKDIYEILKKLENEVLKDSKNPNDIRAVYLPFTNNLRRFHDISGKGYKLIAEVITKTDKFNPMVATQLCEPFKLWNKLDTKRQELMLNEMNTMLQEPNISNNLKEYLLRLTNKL
Type of assay: biochemical. Particulars: read-out: Ki (nM) PfA-M1; P1' derivatives; assays at 8 inhibitor concentrations spanning 0.3 30 μM.

For `N[C@H](Cc1ccccc1)[C@H](O)C(=O)N[C@@H](Cc1ccc(-c2ccccc2)cc1)C(=O)O` [compound 6, PheBipOH], the Ki – broadly, a dissociation constant, usually derived from enzyme kinetics or from competition with a known ligand – was greater than 30000 nM. Regarding `N[C@H](Cc1ccccc1)[C@H](O)C(=O)N[C@@H](Cc1ccc2ccccc2c1)C(=O)O` [compound 5, PheNaphOH], the Ki was greater than 30000 nM.
